Where “and” joins values, the source holds several entries; their conditions need not be identical. Identical values can stand only once. Entries after “also recorded” stand apart in the source; their conditions may differ. Like-named read-outs stand apart in the source and are kept apart here.
What was measured:
[1] = Cytotoxicity counterscreen, CellTiter Glo, 72 hr; assay type: cell-based, human; settings: human, bladder carcinoma 5637 cells (ATCC HTB-9); for CC50 at 72 h: read-out: Mammalian cell toxicity CC50
Outline: (§1)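 5637 bladder carcinoma cells were exposed to a 10-point compound series (300-0.58 μM, 0.5% DMSO) for 72 h. Viability was measured by CellTiter-Glo luminescence, and TC50 (CC50) was derived, with Hyamine as cytotoxic control.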

[2] = system: Bladder carcinoma 5637 cells; assay: Cytotoxicity counterscreen, CellTiter Glo, 72 hr; assay type: cell-based, human; settings: bladder carcinoma 5637 cells
Outline: as §1

PAMPA permeability = assay type: in vitro ADME; settings: read-out: PAMPA Pe
[3] = Plasma protein binding, mouse; assay type: in vitro ADME
Plasma stability, mouse = assay type: in vitro ADME; settings: 1:1 Plasma:PBS, 37° C.
in vitro = assay type: cell-based; settings: human
E. coli UTI89 = assay: Murine UPEC sepsis model; assay type: in vivo
Experimental: Murine UPEC sepsis model and treatment with DU011. Groups of five 6-7 week old C57BL/6NCr female mice (purchased from Frederick National Laboratory for Cancer Research) were injected subcutaneously twice daily with 100 μL of 1% DMSO (vehicle control) or DU011 (1 mg/ml) starting 12 hrs prior to the intra peritoneal infection. Weights were recorded twice daily to monitor health of the animals and tolerance to the compound. Mice were challenged by intraperitoneal injection with 10^8 CFU of the indicated E. coli UTI89 in 100 μL of PBS. Briefly, cultures were prepared by diluting overnight cultures (18 hrs) 1:100 into 3 mL of LB supplemented with 1% DMSO final or 100 μM DU011 (1% DMSO final). Shaken cultures were grown at 37° C. for 6 hours to an OD600 of 1.2, and then cells were pelleted and resuspended in 1 mL of PBS. Absorbance was adjusted to OD600 of 0.8 in PBS, and the cultures were then diluted 1:10 in sterile PBS Animals were also given an intraperitoneal dose of 1% DMSO or DU011, in a site different than the administration of bacteria, to ensure sufficient systemic delivery of drug. Animal survival was assessed after 12 hours. Surviving mice were re-dosed according to the treatment groups and continued to be monitored. The experiment was concluded 48 hours post infection. The entire experiment was repeated with similar results.
Throughout each experiment, animals were monitored each 6 hours from the time of infection until conclusion for serious morbidity, including ruffled fur, decreased activity, slowed respirations, and ill appearance. Animals were provided gel packs for easily accessible additional hydration throughout the experiments. When a moribund state was suspected or anticipated by these criteria, animals were immediately euthanized to minimize potential pain and/or suffering. Of the total animals with an outcome categorized as death, the following numbers were euthanized for terminal morbidity prior to septic death (euthanized/total deaths): 3/10, no prior treatment; 3/5 prior chemical treatment of bacteria alone; 0/2 prior chemical treatment of mice alone. Euthanasia for all animals was through complete respiratory cessation using the inhaled anesthetic isoflurane followed by secondary assurance of death using bilateral thoracotomy. All animal experiments were conducted with prior approval from the Institutional Animal Care and Use Committee of Duke University.

UPEC = assay: Emergence of spontaneous resistance on exposure to probe; assay type: cell-based, Escherichia coli; settings: range of concentrations
Description: The probe described herein is entirely novel with the only precedent being the structurally dissimilar molecule 2-(4-phenylphenyl)benzo[g]quinoline-4-carboxylic acid that we previously described in proof-of-concept studies (33). The probe described herein is uniquely poised for development as an infection-specific prevention and treatment therapeutic that enhances natural immune clearance of an infection, namely UTI. […] However, the probe has no effect on in vitro growth and viability of UPEC in the absence of immune factors. […] Furthermore, this probe would be expected to act upon traditional antibiotic resistant strains of E. coli.

[4] = pre-treatment of bacteria without pretreatment of the mice

## CCOc1ccc(-c2cc(NC(=O)c3c(F)cccc3F)c(C(=O)O)s2)cc1 [ML317, 3-(2,6-difluorobenzamido)-5-(4-ethoxyphenyl)thiophene-2-carboxylic acid]
[1]; commercial sample, SID 103147605
  CC50 at 72 h: 47.2 ± 7.2 µM
[1]; first round of synthetic analogues, n = 3
  IC50 at 72 h: 51.6 µM
[1]; purchased analogue series, n = 2
  IC50 at 72 h: 47.2 µM
[1]; synthesized sample, SID 126497311
  CC50 at 72 h: 51.6 ± 13.7 µM
[2]
  Cytotoxicity CC50 / TC50 / IC50: 47.2 ± 7.2 µM and 51.6 µM
[2]; listed as CID 23602075
  Cytotoxicity CC50 / TC50 / IC50: 47.2 ± 7.2 µM
PAMPA permeability; Donor pH 5.0, Acceptor pH 7.4, RT
  Papp: 14 ×10⁻⁶ cm/s
PAMPA permeability; Donor pH 6.2, Acceptor pH 7.4, RT
  Papp: 209 ×10⁻⁶ cm/s
PAMPA permeability; pH 7.4, Donor pH 7.4, Acceptor pH 7.4, RT
  Papp: 52 ×10⁻⁶ cm/s
[3]; 1 μM
  Plasma Protein Binding (% Bound): 98.97 % Bound
[3]; 10 μM
  Plasma Protein Binding (% Bound): 99.31 % Bound
Plasma stability, mouse
  Plasma Stability, % remaining at 3 hr: 78.4 % remaining
In vitro
  CC50: 26 µM
E. coli UTI89; 100 μL of 1 mg/ml subcutaneously twice daily, listed as DU011
  Tolerability in mice: without evident side effects; also recorded: no detectable adverse effects
E. coli UTI89; [4]
  Body weight: ongoing weight loss
  Survival: 50%
E. coli UTI89; pretreatment of the bacteria and mice with DU011
  Body weight: recovery of pre-infection weights
E. coli UTI89; pretreatment of the bacteria and mice with DU011, 10^8 CFU UTI89 intraperitoneal, 48 hrs
  Survival: 100%
E. coli UTI89; subcutaneous DU011 and untreated UTI89
  Body weight: stabilization of weights
E. coli UTI89; subcutaneous DU011 and untreated UTI89, 48 hrs
  Survival: 80%
UPEC
  Emergence of spontaneous resistance in the laboratory: has not resulted in the emergence of spontaneous resistance

— patent publication US9688653B2, “Ethoxyphenyl thienyl compounds and methods for the treatment of bacterial infections” (Duke University, priority 2013, dated 2017)
